The subject of data set [1] is Plasmodium falciparum. The data set is described as follows: NOVARTIS: Inhibition of Plasmodium falciparum W2 (drug-resistant) proliferation in erythrocyte-based infection assay. In kind it is functional, organism-based. Conditions: Plasmodium falciparum, W2; read-out: EC50.
Data set [2] deals with Plasmodium falciparum. Nature of the data set: NOVARTIS: Inhibition of Plasmodium falciparum 3D7 (drug-susceptible) proliferation in erythrocyte-based infection assay. It counts as functional, organism-based. The settings on record: Plasmodium falciparum, 3D7.
The nature of data set [3]: NOVARTIS: Cytotoxicity against human hepatocellular carcinoma cell line (Huh7). In kind it is toxicity, cell-based, Huh-7. The settings on record: Huh7 cells (hepatocellular carcinoma cell line).

As a reminder, the EC50 is the concentration that produces a half-maximal response. As usually defined, the CC50 is the concentration giving 50% cytotoxicity. Regarding `CCc1ccc2c(c1)C1(NN=C(c3ccc(C)cc3)S1)C(=O)N2` (stereo unspecified), the EC50 with Plasmodium falciparum [1] came out at 2.1 µM; in the data set on Plasmodium falciparum [2], 1.49 µM. Besides, the CC50 in data set [3] is 23.8 µM.

As for `Oc1ccc(Nc2ccnc3cc(Cl)ccc23)cc1`, the EC50 with Plasmodium falciparum [1] amounted to 3.52 µM; with Plasmodium falciparum [2], 3.37 µM. The CC50 in data set [3] was 39.7 µM.

As to `Cc1ccc(C(=O)N(CCc2ccccc2)C(C)c2nc3ccccc3c(=O)n2-c2cccc(Cl)c2C)cc1[N+](=O)[O-]` (stereo unspecified), the EC50 in the data set on Plasmodium falciparum [1] is 0.887 µM; in the data set on Plasmodium falciparum [2], greater than 1.61 µM. Besides, the CC50 in data set [3] was greater than 10 µM.

`CCN(CC)C(CN1CCN(CC(C)C(=O)c2ccc(O)cc2)CC1)c1ccc(F)cc1` (stereo unspecified): the EC50 in the data set on Plasmodium falciparum [1] is 4.31 µM; in the data set on Plasmodium falciparum [2], 1.95 µM. The compound further gave a CC50 in data set [3] of 49 µM.

For the compound `Clc1cc(N2CCCCC2)c(Cl)nn1`, the EC50 was greater than 0.892 µM in the data set with Plasmodium falciparum [1] and greater than 1.25 µM in the data set on Plasmodium falciparum [2]. In addition, in data set [3], the CC50 was greater than 10 µM.

On to `COc1ccc(OC)c(C(=O)c2oc3ccccc3c2NC(=O)CCl)c1`, for which the half-maximal effective concentration (EC50) came out at 1.38 µM with Plasmodium falciparum [1] and 10.2 µM with Plasmodium falciparum [2]. Besides, half-maximal cytotoxicity in data set [3] (CC50) was put at 15.5 µM.

As for `COc1ccc(/C=C/C(=O)Nc2ccc(S(=O)(=O)N3CCOCC3)cc2)cc1`, the EC50 in the data set with Plasmodium falciparum [1] was 0.891 µM; in the data set on Plasmodium falciparum [2] it was greater than 1.62 µM. The CC50 in data set [3] is greater than 10 µM.

Take `O=C(N/C(=C/C=C/c1ccccc1)C(=O)N1CCCCC1)c1ccc([N+](=O)[O-])cc1`: the results for the EC50 in the data set with Plasmodium falciparum [1] and in the data set on Plasmodium falciparum [2] were greater than 0.889 µM and greater than 0.719 µM, respectively. Moreover, the CC50 in data set [3] is greater than 10 µM.

As to `O=C(c1cccs1)N(Cc1cccs1)c1ccc([N+](=O)[O-])cc1`, the values for the EC50 in the data set on Plasmodium falciparum [1] and in the data set on Plasmodium falciparum [2] were 0.888 µM and 0.677 µM, respectively. For the same compound, the CC50 in data set [3] is greater than 10 µM.

As to `Cn1c(C(C#N)C(=S)NC2CCCCC2)nc2cccnc21` (stereo unspecified), the EC50 in the data set on Plasmodium falciparum [1] was greater than 0.894 µM; with Plasmodium falciparum [2], greater than 1.25 µM. In data set [3], this compound displayed a half-maximal cytotoxic concentration (CC50) greater than 10 µM.

As to `COc1ccc(CNC2CCN(CCN3CCCCC3)C(c3ccc(OCc4ccccc4)cc3)C2)cc1OC` (stereo unspecified), the EC50 in the data set on Plasmodium falciparum [1] came to 0.447 µM; in the data set with Plasmodium falciparum [2], 0.662 µM. Further, the CC50 in data set [3] was determined as 5.06 µM.

With `Cc1ccc(NC(=O)c2sc3nc4c(c(-c5ccc(C)cc5)c3c2N)CCC4)cc1`, the EC50 was 8.94 µM with Plasmodium falciparum [1] and 2.79 µM in the data set on Plasmodium falciparum [2]. Moreover, in data set [3], the CC50 is greater than 100 µM.

For the compound `Oc1c(C(Nc2ccccn2)c2ccncc2)ccc2cccnc12` (stereo unspecified), the EC50 was determined as 0.892 µM in the data set on Plasmodium falciparum [1] and 0.83 µM with Plasmodium falciparum [2]. Further, in data set [3], the CC50 was greater than 10 µM.

Regarding `Fc1ccc(CNc2ccnc3cc(Cl)ccc23)cc1`, the EC50 with Plasmodium falciparum [1] is greater than 0.881 µM; with Plasmodium falciparum [2], 0.808 µM. The same compound returned a CC50 in data set [3] greater than 10 µM.

Take `CCOc1nc2c(c(=O)n(C)c(=O)n2C)n1Cc1cccc(Br)c1`: the results for the EC50 in the data set on Plasmodium falciparum [1] and with Plasmodium falciparum [2] were greater than 0.885 µM and greater than 1.61 µM, respectively. The 50% cytotoxic concentration (CC50) in data set [3] is greater than 10 µM.

Consider `C=CCc1cc([N+](=O)[O-])cc2c1OC1(C=C2)N(c2ccccc2)c2ccccc2C1(C)C` (stereo unspecified), for which the EC50 in the data set with Plasmodium falciparum [1] was found to be 0.885 µM; with Plasmodium falciparum [2], 0.396 µM. Moreover, the CC50 in data set [3] is greater than 10 µM.

Regarding `COc1ccc(-c2nnc(NC(=O)CCN(CCc3ccc(OC)c(OC)c3)C(=O)c3cccc4ccccc34)s2)cc1`, the concentration for a half-maximal effect (EC50) in the data set with Plasmodium falciparum [1] was greater than 1.2 µM; in the data set on Plasmodium falciparum [2] it was 0.934 µM. Moreover, the CC50 in data set [3] was greater than 13.6 µM.

On to `O=C1c2ccc(-c3nc(-c4ccccc4)[nH]c3-c3ccccc3)cc2-c2cc(-c3[nH]c(-c4ccccc4)nc3-c3ccccc3)ccc21`, for which the EC50 in the data set with Plasmodium falciparum [1] is 8.93 µM; with Plasmodium falciparum [2], 9.19 µM. Moreover, the CC50 in data set [3] is greater than 100 µM.

On to `c1ccc(N=Nc2nnc(Nc3ccccc3)s2)cc1`, for which the 50% effective concentration (EC50) with Plasmodium falciparum [1] was determined as 0.884 µM; with Plasmodium falciparum [2] it was 0.957 µM. In addition, the CC50 in data set [3] is greater than 10 µM.

As to `CCC(NC1CCCCC1)c1nc2ccccc2c(=O)n1C` (stereo unspecified), the EC50 in the data set with Plasmodium falciparum [1] is 0.888 µM; in the data set on Plasmodium falciparum [2], 1.11 µM. This compound also displayed a CC50 in data set [3] greater than 10 µM.

As to `CCOC(=O)CSc1nc2c(sc(=S)n2-c2ccc(Cl)c(C)c2)c(=O)n1-c1ccccc1OC`, the EC50 in the data set with Plasmodium falciparum [1] is greater than 0.884 µM; with Plasmodium falciparum [2], greater than 1.25 µM. In data set [3], this compound came in with a CC50 greater than 10 µM.

`CCN(CC)c1nc(S)nc(NC(C)(C)C)n1`: the figures for the EC50 in the data set with Plasmodium falciparum [1] and in the data set on Plasmodium falciparum [2] were greater than 8.81 µM and greater than 12.5 µM, respectively. The compound further came in with a CC50 in data set [3] greater than 100 µM.

(Values after ChEMBL document CHEMBL1156829 (Proc Natl Acad Sci U S A, 2008).)
